The values below come from patent US20260325533A1, “CDK INHIBITOR COMPOUNDS” (ALEKSIA THERAPEUTICS, INC., priority 2023, published 2026).

What all share (format): biochemical
The target of assay [1] is CDK4/CCND3 (Homo sapiens, UniProt P11802). The assay can be described thus: CDK4 homogeneous time-resolved fluorescence (HTRF) kinase assay. Conditions: 1.5 nM CDK4/CCND3, 1 mM ATP. In outline:
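HTRF kinase assay, CDK4/CCND3 1.5 nM, ATP 1 mM, ULight-4E-BP1 peptide 50 nM, 23 °C, 60 min reaction after 20 min preincubation. Eu-anti-pThr37/46 antibody detection. 11-pt half-log curves from 10 μM → IC50.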

In assay [2] the target is CDK6/CCND1 (Homo sapiens, UniProt Q00534). The assay can be described thus: CDK6 homogeneous time-resolved fluorescence (HTRF) kinase assay. The note with it: 1 nM CDK6/CCND1, 1 mM ATP. In outline: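 Recombinant CDK6/CCND1 (1 nM final) was preincubated with compound for 20 min at 23 °C in HEPES buffer with MgCl2, EGTA, DTT and Tween 20. Kinase reaction then ran 60 min at 23 °C with 1 mM ATP and 50 nM ULight-4E-BP1 (Thr37/46) peptide, and was stopped with EDTA.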
Sequence of CDK6/CCND1 (Q00534 whole entry): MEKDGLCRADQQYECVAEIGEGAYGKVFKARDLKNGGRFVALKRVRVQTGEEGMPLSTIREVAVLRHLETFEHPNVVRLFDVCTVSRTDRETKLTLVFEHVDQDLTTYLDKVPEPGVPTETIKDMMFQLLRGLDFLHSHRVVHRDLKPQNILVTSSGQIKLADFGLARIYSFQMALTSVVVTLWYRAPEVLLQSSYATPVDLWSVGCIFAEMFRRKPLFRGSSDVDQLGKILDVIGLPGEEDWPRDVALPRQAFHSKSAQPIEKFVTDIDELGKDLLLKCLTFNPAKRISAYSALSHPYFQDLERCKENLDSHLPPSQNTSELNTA
Sequence of CDK6/CCND1 (P24385 whole entry partner): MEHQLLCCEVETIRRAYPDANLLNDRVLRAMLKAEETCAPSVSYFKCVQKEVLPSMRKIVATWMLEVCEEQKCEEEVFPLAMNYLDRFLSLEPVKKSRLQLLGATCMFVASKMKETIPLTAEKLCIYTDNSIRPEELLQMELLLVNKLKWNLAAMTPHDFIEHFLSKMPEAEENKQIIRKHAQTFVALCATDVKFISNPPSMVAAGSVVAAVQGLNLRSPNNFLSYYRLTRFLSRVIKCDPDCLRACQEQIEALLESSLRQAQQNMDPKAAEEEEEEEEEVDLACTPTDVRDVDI
Background: TR-FRET usually uses a lanthanide donor and a delayed reading to cut background.

The target in assay [3] is CDK1/CCNB1 (Homo sapiens, UniProt P06493). Nature of the assay: CDK1 homogeneous time-resolved fluorescence (HTRF) kinase assay. The note with it: 0.5 nM CDK1/CCNB1, 1 mM ATP. In outline:
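High-ATP (1 mM) HTRF assay with 0.5 nM CDK1/cyclin B1 and 50 nM ULight-4E-BP1 (Thr37/46) substrate, 60 min at 23 °C after 20-min compound preincubation. IC50 values come from dose-response curves.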

In assay [4] the target is CDK2/CCNE1 (Homo sapiens, UniProt P24941). Nature of the assay: CDK2 homogeneous time-resolved fluorescence (HTRF) kinase assay. Conditions: 3 nM CDK2/CCNE1, 1 mM ATP. In short, it runs like this: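 IC50 derived from 11-point, half-log dilutions (usually top 10 μM) of compound, 1% DMSO. Kinase (3 nM CDK2/CCNE1) was preincubated with compound 20 min, then phosphorylated 50 nM ULight-4E-BP1 peptide at 1 mM ATP for 60 min, 23 °C. Europium-antibody TR-FRET read after EDTA stop.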

Where [5] appears, read: read-out: CDK4/CCND IC50 25-250 nM.
Where [6] appears, read: read-out: CDK6/CCND IC50 25-250 nM.
The mark [7] stands for this setting: read-out: CDK1/CCNB IC50 >250 nM.
Setting [8] is: read-out: CDK2/CCNE IC50 25-250 nM.
[9] abbreviates: read-out: CDK4/CCND IC50 >250 nM.
The mark [10] stands for this setting: read-out: CDK6/CCND IC50 >250 nM.
The mark [11] stands for this setting: read-out: CDK2/CCNE IC50 >250 nM.
The mark [12] stands for this setting: read-out: CDK6/CCND IC50 <25 nM.
Setting [13] is: read-out: CDK1/CCNB IC50 25-250 nM.
Where [14] appears, read: read-out: CDK2/CCNE IC50 <25 nM.

Counter-ions that a name gives are not always drawn. Like-named read-outs stand apart in the source and are kept apart here.

Sequence of CDK1/CCNB1 (P06493 whole entry): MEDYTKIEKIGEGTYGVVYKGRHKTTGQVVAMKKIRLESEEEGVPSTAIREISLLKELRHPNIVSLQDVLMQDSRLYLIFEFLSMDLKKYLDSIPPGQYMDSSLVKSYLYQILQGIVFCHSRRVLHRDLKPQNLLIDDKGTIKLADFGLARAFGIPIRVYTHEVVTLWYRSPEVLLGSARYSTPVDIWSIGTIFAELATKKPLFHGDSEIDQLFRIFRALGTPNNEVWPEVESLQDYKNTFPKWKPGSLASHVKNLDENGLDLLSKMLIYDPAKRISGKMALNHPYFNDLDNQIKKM
Sequence of CDK1/CCNB1 (P14635 whole entry partner): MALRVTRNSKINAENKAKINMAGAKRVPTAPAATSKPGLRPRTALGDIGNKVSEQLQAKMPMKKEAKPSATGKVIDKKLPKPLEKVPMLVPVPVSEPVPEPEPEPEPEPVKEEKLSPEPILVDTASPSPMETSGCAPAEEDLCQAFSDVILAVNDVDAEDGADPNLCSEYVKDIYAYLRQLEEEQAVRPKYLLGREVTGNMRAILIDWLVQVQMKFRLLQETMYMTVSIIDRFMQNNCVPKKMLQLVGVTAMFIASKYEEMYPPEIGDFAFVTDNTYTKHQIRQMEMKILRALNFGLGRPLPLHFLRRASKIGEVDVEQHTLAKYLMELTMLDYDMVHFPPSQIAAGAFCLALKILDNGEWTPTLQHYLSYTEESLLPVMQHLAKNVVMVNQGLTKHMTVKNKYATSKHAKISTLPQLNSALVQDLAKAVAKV
Sequence of CDK4/CCND3 (P11802 whole entry): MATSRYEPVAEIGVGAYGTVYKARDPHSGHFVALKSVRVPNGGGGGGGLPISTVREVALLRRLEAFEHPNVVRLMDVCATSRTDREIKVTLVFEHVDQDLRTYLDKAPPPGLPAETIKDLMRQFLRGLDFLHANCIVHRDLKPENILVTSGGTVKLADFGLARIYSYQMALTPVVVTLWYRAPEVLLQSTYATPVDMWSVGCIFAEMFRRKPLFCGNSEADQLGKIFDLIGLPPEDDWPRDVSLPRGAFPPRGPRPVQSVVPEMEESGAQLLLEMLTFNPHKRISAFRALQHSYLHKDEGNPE
Sequence of CDK4/CCND3 (P30281 whole entry partner): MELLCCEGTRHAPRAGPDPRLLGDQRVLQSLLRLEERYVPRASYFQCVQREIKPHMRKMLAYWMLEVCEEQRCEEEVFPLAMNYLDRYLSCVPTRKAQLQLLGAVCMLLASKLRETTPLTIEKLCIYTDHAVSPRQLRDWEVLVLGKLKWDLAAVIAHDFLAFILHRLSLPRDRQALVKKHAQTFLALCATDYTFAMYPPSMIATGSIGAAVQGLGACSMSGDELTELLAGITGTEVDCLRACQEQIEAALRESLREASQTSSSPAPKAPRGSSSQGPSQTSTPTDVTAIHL

In the case of `CS(=O)(=O)c1ccc(Nc2cc3c(C#Cc4ccc5c(c4)CCNC5)c(C#N)ccc3cn2)cc1` [Example 947, 3-((4-(methylsulfonyl)phenyl)amino)-5-((1,2,3,4-tetrahydroisoquinolin-6-yl)ethynyl)isoquinoline-6-carbonitrile], the IC50 in assay [1] (setting [5]) was 0.025 to 0.25 µM; in assay [2] (setting [6]), 0.025 to 0.25 µM; in assay [3] (setting [7]), more than 0.25 µM; in assay [4] (setting [8]) it was 0.025 to 0.25 µM.

In the case of `CS(=O)(=O)c1ccc(Nc2ncc3ccc(C#N)c(C#Cc4ccc5c(c4)CCNC5)c3n2)cc1` [Example 948, 2-((4-(methylsulfonyl)phenyl)amino)-8-((1,2,3,4-tetrahydroisoquinolin-6-yl)ethynyl)quinazoline-7-carbonitrile, TFA Salt], the IC50 in assay [1] (setting [9]), in assay [2] (setting [10]), in assay [3] (setting [7]) and in assay [4] (setting [11]) was more than 0.25 µM throughout.

Regarding `CS(=O)(=O)c1ccc(Nc2ncc3ccnc(C#Cc4ccc(C#N)cc4)c3n2)cc1` [Example 949, 4-((2-((4-(methylsulfonyl)phenyl)amino)pyrido[3,4-d]pyrimidin-8-yl)ethynyl)benzonitrile], the IC50 in assay [1] (setting [9]), in assay [2] (setting [10]), in assay [3] (setting [7]) and in assay [4] (setting [11]) was more than 0.25 µM throughout.

On to `CS(=O)(=O)c1ccc(Nc2cc3c(C4=CCCCC4)ncnc3cn2)cc1` [Example 950, 4-(cyclohex-1-en-1-yl)-N-(4-(methylsulfonyl)phenyl)pyrido[3,4-d]pyrimidin-6-amine], for which the IC50 in assay [1] (setting [9]) is more than 0.25 µM; in assay [2] (setting [10]) it was more than 0.25 µM; in assay [3] (setting [7]), more than 0.25 µM; in assay [4] (setting [8]), 0.025 to 0.25 µM.

For the compound `CS(=O)(=O)c1ccc(Nc2cc3c(N4CCC(C#N)CC4)c(C#N)cnc3cn2)cc1` [Example 953, 4-(4-cyanopiperidin-1-yl)-6-((4-(methylsulfonyl)phenyl)amino)-1,7-naphthyridine-3-carbonitrile], the IC50 in assay [1] (setting [9]), in assay [2] (setting [10]), in assay [3] (setting [7]) and in assay [4] (setting [11]) was more than 0.25 µM each time.

Regarding `Cc1cc(N2CCC(C#N)CC2)c2nc(Nc3ccc(S(C)(=O)=O)cc3)ncc2c1` [Example 954, 1-(6-methyl-2-((4-(methylsulfonyl)phenyl)amino)quinazolin-8-yl)piperidine-4-carbonitrile], the IC50 in assay [1] (setting [9]), in assay [2] (setting [10]), in assay [3] (setting [7]) and in assay [4] (setting [11]) was more than 0.25 µM throughout.

As to `CS(=O)(=O)c1ccc(Nc2ncc3ccc(C#N)c(C#Cc4ccc(C#N)cc4)c3n2)cc1` [Example 955, 8-((4-cyanophenyl)ethynyl)-2-((4-(methylsulfonyl)phenyl)amino) quinazoline-7-carbonitrile], the IC50 in assay [1] (setting [9]), in assay [2] (setting [10]), in assay [3] (setting [7]) and in assay [4] (setting [11]) was more than 0.25 µM each time.

Consider `CS(=O)(=O)c1ccc(Nc2ncc3ccnc(C4=CCCCC4)c3n2)cc1` [Example 956, 8-(cyclohex-1-en-1-yl)-N-(4-(methylsulfonyl)phenyl)pyrido[3,4-d]pyrimidin-2-amine], for which the IC50 in assay [1] (setting [5]) is 0.025 to 0.25 µM; in assay [2] (setting [12]), less than 0.025 µM; in assay [3] (setting [13]) it was 0.025 to 0.25 µM; in assay [4] (setting [14]), less than 0.025 µM.

Consider `CS(=O)(=O)c1ccc(Nc2ncc3ccc(C#N)c(N4CCC(C#N)CC4)c3n2)cc1` [Example 957, 8-(4-cyanopiperidin-1-yl)-2-((4-(methylsulfonyl)phenyl)amino) quinazoline-7-carbonitrile], for which the IC50 is less than 0.025 µM in assay [1] (read-out: CDK4/CCND IC50 <25 nM), less than 0.025 µM in assay [2] (setting [12]), 0.025 to 0.25 µM in assay [3] (setting [13]) and less than 0.025 µM in assay [4] (setting [14]).

On to `CS(=O)(=O)c1ccc(Nc2ncc3ccnc(N4CCC(C#N)CC4)c3n2)cc1` [Example 958, 1-(2-((4-(methylsulfonyl)phenyl)amino)pyrido [3,4-d]pyrimidin-8-yl)piperidine-4-carbonitrile], for which the IC50 in assay [1] (setting [5]) is 0.025 to 0.25 µM; in assay [2] (setting [12]) it was less than 0.025 µM; in assay [3] (setting [7]), more than 0.25 µM; in assay [4] (setting [14]) it was less than 0.025 µM.

Consider `Cc1c(-c2c(C#N)ccc3cnc(Nc4ccc(S(C)(=O)=O)cc4)nc23)ccc2c1cnn2CCO` [Example 962, 8-(1-(2-hydroxyethyl)-4-methyl-1H-indazol-5-yl)-2-((4-(methylsulfonyl)phenyl)amino) quinazoline-7-carbonitrile], for which the IC50 in assay [1] (setting [5]) was 0.025 to 0.25 µM; in assay [2] (setting [6]), 0.025 to 0.25 µM; in assay [3] (setting [13]) it was 0.025 to 0.25 µM; in assay [4] (setting [14]), less than 0.025 µM.

As for `Cc1c(-c2nccc3cnc(Nc4ccc(S(C)(=O)=O)cc4)nc23)ccc2c1cnn2CCO` [Example 963, 2-(4-methyl-5-(2-((4-(methylsulfonyl)phenyl)amino)pyrido [3,4-d]pyrimidin-8-yl)-1H-indazol-1-yl)ethan-1-ol], the IC50 in assay [1] (setting [5]) is 0.025 to 0.25 µM; in assay [2] (setting [6]), 0.025 to 0.25 µM; in assay [3] (setting [13]), 0.025 to 0.25 µM; in assay [4] (setting [14]) it was less than 0.025 µM.

For `Cc1c(-c2c(C#N)ccc3cnc(Nc4ccc(S(C)(=O)=O)cc4)nc23)ccc2nn(C)cc12` [Example 964, 8-(2,4-dimethyl-2H-indazol-5-yl)-2-((4-(methylsulfonyl)phenyl)amino) quinazoline-7-carbonitrile], the IC50 is 0.025 to 0.25 µM in assay [1] (setting [5]), 0.025 to 0.25 µM in assay [2] (setting [6]), 0.025 to 0.25 µM in assay [3] (setting [13]) and less than 0.025 µM in assay [4] (setting [14]).

As to `Cc1c(-c2nccc3cnc(Nc4ccc(S(C)(=O)=O)cc4)nc23)ccc2nn(C)cc12` [Example 965, 8-(2,4-dimethyl-2H-indazol-5-yl)-N-(4-(methylsulfonyl)phenyl)pyrido[3,4-d]pyrimidin-2-amine], the IC50 in assay [1] (setting [9]) was more than 0.25 µM; in assay [2] (setting [10]) it was more than 0.25 µM; in assay [3] (setting [7]), more than 0.25 µM; in assay [4] (setting [14]), less than 0.025 µM.
